In publication PMC9578445, “Association of respiratory failure with inhibition of NaV1.6 in the phrenic nerve” (Channels, 2022):
pIC50: −log10 of the molar value.

Key:
Human NaV1.5 = biological target: T1, Human NaV1.5 (Homo sapiens, UniProt Q14524); test: PatchXpress automated patch clamp, depolarized-state protocol; assay type: cell-based; conditions: HEK 293 cells
T1 construct: expressed in transfected cells
Protocol: Sodium currents were recorded from recombinant Human Embryonic Kidney 293 cell lines stably overexpressing the respective sodium channel type (NaV1.2, 1.5, 1.4, 1.6, 1.7). Recording solutions were comprised of the following (in mM): Internal solution: 30 CsCl, 5 HEPES, 10 EGTA, 120 CsF, 5 NaF, 2 MgCl2, pH = 7.3 with CsOH; External solution 1: 40 NaCl, 120 NMDG, 1 KCl, 0.5 MgCl2, 5 HEPES, 2.7 CaCl2, pH to 7.3 with NaOH, used for NaV1.5 recordings; External solution 2: 150 NaCl, 5 KCl, 2 CaCl2, 1 MgCl2, 10 HEPES, 12 Dextrose, pH 7.3 with NaOH, used for NaV1.7, 1.6, 1.4, and 1.2 recordings.
Whole-cell currents were recorded from cells stably expressing NaV channels using the PatchXpress 7000A automated patch clamp platform (Molecular Devices, LLC; Sunnyvale, CA). A portable air-conditioning unit was installed on the PatchXpress instruments to maintain the temperature of the headstage at 21°C. Cells were voltage clamped at −60 mV for cell detection and sealing. At the start of each recording, a voltage curve and an inactivation curve was run for each cell to determine the voltage at which 50% of the channels reside in the inactivated state (V0.5 inact). The voltage curve was used to determine if the cell was adequately clamped; cells with currents larger than 10nA or with space clamp issues were not used further.
NaV1.5: Compound potency was measured in a depolarized-state protocol where the holding potential for each cell was set to V0.5inact – 20 mV. The pulse protocol consisted of an 8 sec prepulse to V0.5inact + 7 mV, followed by a 2 ms hyperpolarization to −120 mV and a 10 ms test pulse to −10 mV. First, vehicle (0.3% DMSO) was added to establish a baseline measurement. Once baseline was established, a test compound was added. Cells were exposed to compound for 5 minutes at V0.5inact – 20 mV. Compound washout was performed to measure the recovery of the sodium currents from inhibition.
Recordings were included for analysis when current amplitude reached steady-state in vehicle, compound inhibition was concentration-dependent and currents recovered during wash-out periods. Raw data from PatchXpress experiments were retrieved from the database and analyzed using the DataXpress 2 software (Molecular Devices).
At least 3 concentrations (3–9 replicates per concentration) were tested and at least one concentration had to cause 20–80% current inhibition.

[1] = test system: anesthetized male CD rats; test: Rat Cardiovascular/Respiratory (CV/R) assay; assay type: in vivo; parameters: ∆ QRS Interval: unit not given here
Protocol: Male CD Rats were anesthetized with ketamine:xylazine (85 mg/kg:5 mg/kg, im, to effect). The left femoral artery and vein were cannulated for the measurement of blood pressure and the administration of test agent, respectively. The right femoral vein was cannulated for maintenance anesthetic infusion (ketamine:xylazine ~35 mg/kg/hr:1.5 mg/kg/hr, iv, to effect). Needle electrodes were placed subcutaneously at the right axillary and left inguinal areas to record lead II ECGs. When ECG intervals were required to determine effect on cardiac conduction a pacing/recording electrode catheter was advanced through the right jugular vein to pace the heart. ECG intervals were then measured at a fixed cardiac rate of 400 beats/minute to remove any variability of intrinsic heart rate on these parameters.
To determine the test agent-dependent effect on respiratory rate, a tracheotomy was also performed using a short length of polyethylene tubing containing a thermistor (AD Instruments). The change in temperature detected by the thermistor was used to calculate respiratory rate.
(§1) For in vivo CVR and phrenic nerve activity studies, all raw signals were amplified via general purposed biological amplifier (filter settings DC – 3-5 KhZ) then digitized, calibrated and collected at a minimum of 500 Hz (1000 Hz for ECG and 2000 Hz for cardiac electrograms, and 10 KHz for phrenic nerve activity) using Notocord-HEM data acquisition and analysis software. The raw signal was filtered following acquisition with a bandpass filter set to 200–800 Hz). Vehicle (100% dimethylformamdide, DMF) or compound formulated in the vehicle was administered as a 30-minute IV infusion at 0.0167 μL/g body weight/min. Doses were selected to achieve unbound plasma concentrations in range of measured Nav1.6 IC50 values when infused at 0.0167uL/g body weight/min based on measured rat clearance, plasma protein binding and Nav1.6 IC50. Exposure in rats was determined in separate pharmacokinetics experiments where compounds were administered via IV dosing.

phrenic nerve = test: Rat phrenic nerve firing assay; conditions: rat in vivo, measured at 30 minutes
Protocol: To determine direct effects on phrenic nerve activity, male CD rats were anesthetized and instrumented as described above for the CV/R assay. In addition, an incision was made in the ventral neck area and the right phrenic nerve identified anatomically and isolated via blunt dissection. The phrenic nerve was placed over a high impedance bipolar hook electrode and the nerve covered with mineral oil to prevent desiccation. Animals were mechanically ventilated via a tracheotomy (~10 mL/kg, 40–70 breaths/min, titrated individually to stabilize phrenic activity) following neuromuscular block (pancuronium 0.5–1 mg/kg, iv) and bilateral vagotomy to better define test agent effects on phrenic nerve activity. Anesthesia was verified repeatedly following pancuronium administration by testing the BP/HR response to noxious stimuli. Spontaneous electrical activity was continuously recorded and then later rectified and averaged to calculate frequency, width, peak height of bursts, and magnitude. Magnitude of the activity was calculated by taking the absolute value of the raw signal and then averaging that signal over 50 ms increments. The resulting average signal was then converted to magnitude by subtracting the […] for each phrenic burst complex. The resulting magnitude values were then averaged over 1 minute increments to result in the graphs shown. Figure S1 in the Supplemental Information illustrates this analytical procedure.
as §1

[2] = rat CV/R assay, IV infusion, doses tested
[3] = rat, IV infusion, 1 mg/kg, 15 min
[4] = rat, IV infusion, 1 mg/kg, 30 min
[5] = rat, IV infusion, 7 mg/kg, 15 min
[6] = rat, IV infusion, 7 mg/kg, 30 min
[7] = rat, IV infusion, 14 mg/kg, 15 min
[8] = rat, IV infusion, 14 mg/kg, 30 min
[9] = rat, IV infusion, 30 mg/kg, 15 min
[10] = rat, IV infusion, 30 mg/kg, 30 min
[11] = rat, IV infusion, 10 mg/kg, 15 min
[12] = rat, IV infusion, 10 mg/kg, 30 min
[13] = rat, IV infusion, 60 mg/kg, 15 min

T1 sequence (Q14524 whole entry): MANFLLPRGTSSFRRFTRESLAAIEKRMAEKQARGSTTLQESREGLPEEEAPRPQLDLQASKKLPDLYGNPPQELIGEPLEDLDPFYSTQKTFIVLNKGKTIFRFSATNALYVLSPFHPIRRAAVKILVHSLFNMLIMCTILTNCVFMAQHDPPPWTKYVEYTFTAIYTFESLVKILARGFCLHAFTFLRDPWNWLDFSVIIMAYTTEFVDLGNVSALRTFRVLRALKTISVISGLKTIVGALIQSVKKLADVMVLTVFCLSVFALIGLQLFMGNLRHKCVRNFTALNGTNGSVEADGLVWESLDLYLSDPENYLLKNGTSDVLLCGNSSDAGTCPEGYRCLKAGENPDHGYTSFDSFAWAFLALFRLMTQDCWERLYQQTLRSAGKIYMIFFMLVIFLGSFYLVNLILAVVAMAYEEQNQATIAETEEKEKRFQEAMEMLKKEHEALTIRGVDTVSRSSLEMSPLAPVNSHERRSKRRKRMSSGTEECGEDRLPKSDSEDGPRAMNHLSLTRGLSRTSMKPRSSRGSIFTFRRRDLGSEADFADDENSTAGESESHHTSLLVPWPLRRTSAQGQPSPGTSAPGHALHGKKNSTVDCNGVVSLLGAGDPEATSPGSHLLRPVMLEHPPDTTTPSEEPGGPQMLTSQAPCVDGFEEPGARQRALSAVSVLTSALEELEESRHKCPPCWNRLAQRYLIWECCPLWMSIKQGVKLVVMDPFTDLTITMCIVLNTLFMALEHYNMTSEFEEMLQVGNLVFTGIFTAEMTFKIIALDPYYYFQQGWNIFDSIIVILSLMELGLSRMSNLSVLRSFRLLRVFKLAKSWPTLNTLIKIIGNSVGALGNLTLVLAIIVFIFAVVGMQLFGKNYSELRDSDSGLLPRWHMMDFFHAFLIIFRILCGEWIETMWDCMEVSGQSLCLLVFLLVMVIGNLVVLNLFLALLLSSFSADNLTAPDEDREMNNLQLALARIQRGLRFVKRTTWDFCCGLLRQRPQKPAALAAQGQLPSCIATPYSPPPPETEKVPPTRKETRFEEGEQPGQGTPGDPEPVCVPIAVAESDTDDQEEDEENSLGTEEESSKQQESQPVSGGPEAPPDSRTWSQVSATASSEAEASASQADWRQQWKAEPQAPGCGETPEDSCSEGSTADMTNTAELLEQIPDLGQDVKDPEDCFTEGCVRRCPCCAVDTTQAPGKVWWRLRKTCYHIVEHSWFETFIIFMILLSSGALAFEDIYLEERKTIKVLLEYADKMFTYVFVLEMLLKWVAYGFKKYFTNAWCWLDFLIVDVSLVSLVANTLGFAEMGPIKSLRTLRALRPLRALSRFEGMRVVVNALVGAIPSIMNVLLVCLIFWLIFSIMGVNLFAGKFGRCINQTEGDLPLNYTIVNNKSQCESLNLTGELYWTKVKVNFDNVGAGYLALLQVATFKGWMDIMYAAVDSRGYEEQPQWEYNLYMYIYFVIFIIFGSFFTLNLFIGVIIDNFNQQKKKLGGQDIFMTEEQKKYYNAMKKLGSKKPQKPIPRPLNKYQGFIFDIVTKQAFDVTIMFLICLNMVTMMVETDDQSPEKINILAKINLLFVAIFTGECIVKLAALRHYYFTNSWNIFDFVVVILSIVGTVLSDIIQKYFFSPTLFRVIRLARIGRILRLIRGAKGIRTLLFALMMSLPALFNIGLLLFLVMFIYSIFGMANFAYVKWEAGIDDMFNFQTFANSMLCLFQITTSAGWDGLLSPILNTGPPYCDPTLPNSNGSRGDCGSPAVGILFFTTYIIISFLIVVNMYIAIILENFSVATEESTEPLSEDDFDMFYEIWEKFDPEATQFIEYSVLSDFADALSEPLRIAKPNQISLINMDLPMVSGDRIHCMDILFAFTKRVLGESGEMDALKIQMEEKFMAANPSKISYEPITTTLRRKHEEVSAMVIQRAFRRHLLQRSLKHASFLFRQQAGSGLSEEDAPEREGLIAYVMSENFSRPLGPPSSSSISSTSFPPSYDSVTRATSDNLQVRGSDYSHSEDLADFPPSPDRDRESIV

Compound: COc1ccc(CCC(c2cccc3c2CNCC3)n2c(=O)oc3cc(S(=O)(=O)Nc4ncns4)c(F)cc32)cc1 (stereo not drawn) [SSCI-6]
- pIC50 (Human NaV1.5): < 4.52
- mortality [1, 2]: mortality
- ∆ respiratory rate ([1]; rat, IV infusion, 1 mg/kg, 20–23 min): −100%
- ∆ Heart Rate [1, 3]: −0.1 ± 0.4 bpm
- ∆ Mean Arterial Pressure [1, 3]: 8.2 ± 7.9 mmHg
- ∆ QRS Interval [1, 3]: 1.0 ± 0.8
- ∆ respiratory rate [1, 3]: −18.3 ± 9.3%
- ∆ Heart Rate [1, 4]: 1.7 bpm
- ∆ Mean Arterial Pressure [1, 4]: 7.5 mmHg
- ∆ QRS Interval [1, 4]: 1.7
- ∆ respiratory rate [1, 4]: −7.8%

Compound: O=S(=O)(Nc1nccs1)c1cc(Cl)c(NCCCCNC[C@H]2CCCN2)cc1F [SSCI-1]
- percent decrease in the magnitude of the phrenic nerve signal (phrenic nerve): did not show any decrease
- pIC50 (Human NaV1.5): < 4.52
- mortality [1, 2]: No mortality
- effects on cardiovascular and respiratory parameters ([1]; rat CV/R assay, at unbound plasma exposure 16.9 μM): minimal effects
- ∆ Heart Rate [1, 5]: 0.5 ± 2.2 bpm
- ∆ Mean Arterial Pressure [1, 5]: 4.1 ± 0.3 mmHg
- ∆ QRS Interval [1, 5]: 1.4 ± 0.6
- ∆ respiratory rate [1, 5]: 0.8 ± 1.8%
- ∆ Heart Rate [1, 6]: −1.8 ± 3.7 bpm
- ∆ Mean Arterial Pressure [1, 6]: 2.7 ± 0.5 mmHg
- ∆ QRS Interval [1, 6]: 2.5 ± 1.1
- ∆ respiratory rate [1, 6]: 4.5 ± 1.7%
- ∆ Heart Rate [1, 7]: −1.4 ± 1.5 bpm
- ∆ Mean Arterial Pressure [1, 7]: 2.2 ± 1.1 mmHg
- ∆ QRS Interval [1, 7]: 0.4 ± 0.6
- ∆ respiratory rate [1, 7]: 1.9 ± 1.6%
- ∆ Heart Rate [1, 8]: −0.5 ± 2.9 bpm
- ∆ Mean Arterial Pressure [1, 8]: 2.3 ± 2.5 mmHg
- ∆ QRS Interval [1, 8]: 0.4 ± 0.7
- ∆ respiratory rate [1, 8]: 4.0 ± 1.0%
- ∆ Heart Rate [1, 9]: −0.4 ± 1.2 bpm
- ∆ Mean Arterial Pressure [1, 9]: 10.5 ± 1.5 mmHg
- ∆ QRS Interval [1, 9]: 3.7 ± 0.9
- ∆ respiratory rate [1, 9]: −10.1 ± 0.9%
- ∆ Heart Rate [1, 10]: 2.1 ± 1.4 bpm
- ∆ Mean Arterial Pressure [1, 10]: 4.6 ± 1.9 mmHg
- ∆ QRS Interval [1, 10]: 3.9 ± 0.8
- ∆ respiratory rate [1, 10]: −24.8 ± 3.3%

Compound: C[C@H](c1cccc2c1CNCC2)n1c(=O)oc2cc(S(=O)(=O)Nc3ncns3)ccc21 [SSCI-3]
- percent decrease in the magnitude of the phrenic nerve signal (phrenic nerve): 74.2%
- pIC50 (Human NaV1.5): < 4.52
- mortality ([1]; rat CV/R assay, IV, 10 mg/kg): No mortality
- time of mortality ([1]; rat CV/R assay, IV, 30 mg/kg): 20 to 21 min
- ∆ Heart Rate [1, 11]: 3.0 ± 0.7 bpm
- ∆ Mean Arterial Pressure [1, 11]: 12.9 ± 2.1 mmHg
- ∆ respiratory rate [1, 11]: −8.5 ± 1.8%
- ∆ Heart Rate [1, 12]: 5.0 ± 1.9 bpm
- ∆ Mean Arterial Pressure [1, 12]: 6.8 ± 8.7 mmHg
- ∆ QRS Interval [1, 12]: 0.5 ± 0.2
- ∆ respiratory rate [1, 12]: −3.2 ± 1.8%
- ∆ respiratory rate ([1]; rat, IV infusion, 30 mg/kg, 20–21 min): −100%
- ∆ Heart Rate [1, 9]: 5.6 ± 1.7 bpm
- ∆ Mean Arterial Pressure [1, 9]: 13.8 ± 0.7 mmHg
- ∆ QRS Interval [1, 9]: 0.3 + 0.4
- ∆ respiratory rate [1, 9]: −6.2 ± 5.4%

Compound: N#Cc1cc(S(=O)(=O)Nc2cscn2)ccc1Oc1ccc(Cl)cc1-c1ccnn1C1CNC1 [SSCI-5]
- percent decrease in the magnitude of the phrenic nerve signal (phrenic nerve): 76.1%
- pIC50 (Human NaV1.5): < 4.52
- mortality [1, 2]: mortality
- ∆ Heart Rate [1, 9]: −1.7 ± 1.3 bpm
- ∆ Mean Arterial Pressure [1, 9]: 14.0 ± 2.1 mmHg
- ∆ QRS Interval [1, 9]: 1.5 ± 1.1
- ∆ respiratory rate [1, 9]: −13.0 ± 3.4%
- ∆ Heart Rate [1, 10]: −3.7 ± 2.8 bpm
- ∆ Mean Arterial Pressure [1, 10]: 13.3 ± 5.5 mmHg
- ∆ QRS Interval [1, 10]: 4.6 ± 3.2
- ∆ respiratory rate [1, 10]: −10.2 ± 2.6%
- ∆ respiratory rate ([1]; rat, IV infusion, 60 mg/kg, 21–23 min): −100%
- ∆ Heart Rate [1, 13]: 1.0 bpm
- ∆ Mean Arterial Pressure [1, 13]: 5.2 mmHg
- ∆ QRS Interval [1, 13]: 5.2
- ∆ respiratory rate [1, 13]: −15.6%
- time to respiratory and cardiac collapse ([1]; rat, infusion without ventilatory support): ≤ 30 min
